Laboratory results from ChEMBL document CHEMBL3259797, “Radiosyntheses and in vivo evaluation of carbon-11 PET tracers for PDE10A in the brain of rodent and nonhuman primate” (Bioorg Med Chem, 2014).

What was measured:
[1] = system: Heart; assay: Biodistribution in Sprague-Dawley rat heart at 14.8 to 18.5 MBq, iv measured at 60 mins post-injection by gamma counting analysis; format: ADME, organism-based; conditions: in vivo, 1 h
[2] = system: Blood; assay: Biodistribution in Sprague-Dawley rat blood at 14.8 to 18.5 MBq, iv measured at 30 mins post-injection by gamma counting analysis; format: ADME, organism-based; conditions: in vivo, 0.5 h
[3] = system: Liver; assay: Biodistribution in Sprague-Dawley rat liver at 14.8 to 18.5 MBq, iv measured at 60 mins post-injection by gamma counting analysis; format: ADME, organism-based; conditions: in vivo, 1 h
[4] = system: Plasma; assay: Drug metabolism in iv dosed cynomolgus monkey plasma assessed as retention time of hydrophilic metabolite by HPLC analysis; format: ADME, organism-based, Macaca fascicularis; conditions: in vivo
[5] = system: Heart; assay: Biodistribution in Sprague-Dawley rat heart at 14.8 to 18.5 MBq, iv measured at 30 mins post-injection by gamma counting analysis; format: ADME, organism-based; conditions: in vivo, 0.5 h
[6] = system: Rattus norvegicus; assay: Biodistribution in Sprague-Dawley rat fat at 14.8 to 18.5 MBq, iv measured at 5 mins post-injection by gamma counting analysis; format: ADME, organism-based, Adipose tissue; conditions: in vivo
[7] = system: Plasma; assay: Drug metabolism in iv dosed cynomolgus monkey plasma assessed as retention time by HPLC analysis; format: ADME, organism-based, Macaca fascicularis; conditions: in vivo
[8] = system: Rattus norvegicus; assay: Biodistribution in Sprague-Dawley rat fat at 14.8 to 18.5 MBq, iv measured at 30 mins post-injection by gamma counting analysis; format: ADME, organism-based, Adipose tissue; conditions: in vivo, 0.5 h
[9] = system: Cerebellum; assay: Biodistribution in Sprague-Dawley rat cerebellum at 14.8 to 18.5 MBq, iv treated with MP-10 for 5 mins prior to compound administration measured at 30 mins post-injection by gamma counting analysis; format: ADME, organism-based; conditions: in vivo, 0.5 h
[10] = system: Blood; assay: Biodistribution in Sprague-Dawley rat blood at 14.8 to 18.5 MBq, iv treated with MP-10 for 5 mins prior to compound administration measured at 30 mins post-injection by gamma counting analysis; format: ADME, organism-based; conditions: in vivo, 0.5 h
[11] = system: Muscle tissue; assay: Biodistribution in Sprague-Dawley rat muscle at 14.8 to 18.5 MBq, iv treated with MP-10 for 5 mins prior to compound administration measured at 30 mins post-injection by gamma counting analysis; format: ADME, organism-based; conditions: in vivo, 0.5 h
[12] = Drug metabolism in iv dosed cynomolgus monkey plasma assessed as compound remaining measured at 15 mins post-injection by HPLC analysis; format: ADME, organism-based, Macaca fascicularis; conditions: read-out: Stability
[13] = system: Occipital cortex; assay: Biodistribution in cynomolgus monkey occipital cortex at 260 to 370 MBq, iv measured at 20 to 100 mins post-injection by microPET analysis; format: ADME, organism-based, Macaca fascicularis; conditions: in vivo
[14] = system: Muscle tissue; assay: Biodistribution in Sprague-Dawley rat muscle at 14.8 to 18.5 MBq, iv measured at 5 mins post-injection by gamma counting analysis; format: ADME, organism-based; conditions: in vivo
[15] = Biodistribution in cynomolgus monkey temporal cortex at 260 to 370 MBq, iv measured at 20 to 100 mins post-injection by microPET analysis; format: ADME, organism-based, Macaca fascicularis; conditions: in vivo
[16] = Biodistribution in cynomolgus monkey hippocampus at 260 to 370 MBq, iv measured at 20 to 100 mins post-injection by microPET analysis; format: ADME, organism-based, Macaca fascicularis; conditions: in vivo
[17] = system: Cerebellum; assay: Biodistribution in Sprague-Dawley rat cerebellum at 14.8 to 18.5 MBq, iv measured at 30 mins post-injection by gamma counting analysis; format: ADME, organism-based; conditions: in vivo, 0.5 h
[18] = system: Kidney; assay: Biodistribution in Sprague-Dawley rat kidney at 14.8 to 18.5 MBq, iv measured at 5 mins post-injection by gamma counting analysis; format: ADME, organism-based; conditions: in vivo
[19] = system: Kidney; assay: Biodistribution in Sprague-Dawley rat kidney at 14.8 to 18.5 MBq, iv measured at 60 mins post-injection by gamma counting analysis; format: ADME, organism-based; conditions: in vivo, 1 h
[20] = system: Striatum; assay: Biodistribution in Sprague-Dawley rat striatum at 14.8 to 18.5 MBq, iv measured at 5 mins post-injection by gamma counting analysis; format: ADME, organism-based; conditions: in vivo
[21] = system: Plasma; assay: Metabolic stability in iv dosed cynomolgus monkey plasma protein pellet under deproteinated condition assessed as compound remaining measured at 5 to 60 mins by HPLC analysis; format: ADME, organism-based, Macaca fascicularis; conditions: in vivo
[22] = system: Brain; assay: Biodistribution in cynomolgus monkey middle brain at 260 to 370 MBq, iv measured at 20 to 100 mins post-injection by microPET analysis; format: ADME, organism-based, Macaca fascicularis; conditions: in vivo
[23] = Metabolic stability in iv dosed cynomolgus monkey RBC assessed as compound remaining measured at 5 to 60 mins by HPLC analysis; format: ADME, organism-based, Macaca fascicularis, Erythrocyte; conditions: in vivo
[24] = system: Blood; assay: Biodistribution in Sprague-Dawley rat blood at 14.8 to 18.5 MBq, iv measured at 60 mins post-injection by gamma counting analysis; format: ADME, organism-based; conditions: in vivo, 1 h
[25] = system: Lung; assay: Biodistribution in Sprague-Dawley rat lung at 14.8 to 18.5 MBq, iv measured at 30 mins post-injection by gamma counting analysis; format: ADME, organism-based; conditions: in vivo, 0.5 h
[26] = system: Rattus norvegicus; assay: Biodistribution in Sprague-Dawley rat fat at 14.8 to 18.5 MBq, iv measured at 60 mins post-injection by gamma counting analysis; format: ADME, organism-based, Adipose tissue; conditions: in vivo, 1 h
[27] = system: Liver; assay: Biodistribution in Sprague-Dawley rat liver at 14.8 to 18.5 MBq, iv measured at 5 mins post-injection by gamma counting analysis; format: ADME, organism-based; conditions: in vivo
[28] = system: Brain; assay: Biodistribution in Sprague-Dawley rat brain at 14.8 to 18.5 MBq, iv measured at 30 mins post-injection by gamma counting analysis; format: ADME, organism-based; conditions: in vivo, 0.5 h
[29] = system: Plasma; assay: Metabolic stability in iv dosed cynomolgus monkey plasma assessed as compound remaining measured at 5 to 60 mins by HPLC analysis; format: ADME, organism-based, Macaca fascicularis; conditions: in vivo
[30] = system: Striatum; assay: Biodistribution in Sprague-Dawley rat striatum at 14.8 to 18.5 MBq, iv treated with MP-10 for 5 mins prior to compound administration measured at 30 mins post-injection by gamma counting analysis; format: ADME, organism-based; conditions: in vivo, 0.5 h
[31] = system: Brain; assay: Biodistribution in Sprague-Dawley rat brain at 14.8 to 18.5 MBq, iv treated with MP-10 for 5 mins prior to compound administration measured at 30 mins post-injection by gamma counting analysis; format: ADME, organism-based; conditions: in vivo, 0.5 h
[32] = system: Heart; assay: Biodistribution in Sprague-Dawley rat heart at 14.8 to 18.5 MBq, iv measured at 5 mins post-injection by gamma counting analysis; format: ADME, organism-based; conditions: in vivo
[33] = system: Kidney; assay: Biodistribution in Sprague-Dawley rat kidney at 14.8 to 18.5 MBq, iv measured at 30 mins post-injection by gamma counting analysis; format: ADME, organism-based; conditions: in vivo, 0.5 h
[34] = system: Liver; assay: Biodistribution in Sprague-Dawley rat liver at 14.8 to 18.5 MBq, iv treated with MP-10 for 5 mins prior to compound administration measured at 30 mins post-injection by gamma counting analysis; format: ADME, organism-based; conditions: in vivo, 0.5 h
[35] = system: Muscle tissue; assay: Biodistribution in Sprague-Dawley rat muscle at 14.8 to 18.5 MBq, iv measured at 30 mins post-injection by gamma counting analysis; format: ADME, organism-based; conditions: in vivo, 0.5 h
[36] = system: Kidney; assay: Biodistribution in Sprague-Dawley rat kidney at 14.8 to 18.5 MBq, iv treated with MP-10 for 5 mins prior to compound administration measured at 30 mins post-injection by gamma counting analysis; format: ADME, organism-based; conditions: in vivo, 0.5 h
[37] = Biodistribution in cynomolgus monkey cerebellum at 260 to 370 MBq, iv measured at 20 to 100 mins post-injection by microPET analysis; format: ADME, organism-based, Macaca fascicularis; conditions: in vivo
[38] = system: Heart; assay: Biodistribution in Sprague-Dawley rat heart at 14.8 to 18.5 MBq, iv treated with MP-10 for 5 mins prior to compound administration measured at 30 mins post-injection by gamma counting analysis; format: ADME, organism-based; conditions: in vivo, 0.5 h
[39] = system: Liver; assay: Biodistribution in Sprague-Dawley rat liver at 14.8 to 18.5 MBq, iv measured at 30 mins post-injection by gamma counting analysis; format: ADME, organism-based; conditions: in vivo, 0.5 h

SMILES	Drug uptake [1] [% ID/g]	Drug uptake [2] [% ID/g]	Drug uptake [3] [% ID/g]	Retention_time [4] [min]	Drug uptake [5] [% ID/g]	Drug uptake [6] [% ID/g]	Retention_time [7] [min]	Drug uptake [8] [% ID/g]	Drug uptake [9] [% ID/g]	Drug uptake [10] [% ID/g]	Drug uptake [11] [% ID/g]	remaining at 0.25 h [12] [%]	Drug uptake [13]	Drug uptake [14] [% ID/g]	Drug uptake [15]	Drug uptake [16]	Drug uptake [17] [% ID/g]	Drug uptake [18] [% ID/g]	Drug uptake [19] [% ID/g]	Drug uptake [20] [% ID/g]	other results
Cn1cc(-c2ccncc2)c(-c2ccc(OCc3nc4ccccc4cc3O[11CH3])cc2)n1	0.199	0.321	6.398	3	0.296	0.935	8	0.851	0.119	0.407	0.257	87	Active	0.412	Active	Active	0.097	4.354	1.275	0.488	Stability [21]: 5%; Drug uptake [22]: Active; Stability [23]: 25%; Drug uptake [24]: 0.275 % ID/g; Drug uptake [25]: 0.408 % ID/g; Drug uptake [26]: 0.5 % ID/g; Drug uptake [27]: 11.005 % ID/g; Drug uptake [28]: 0.133 % ID/g; Stability [29]: 65%; Drug uptake [30]: 0.294 % ID/g; Drug uptake [31]: 0.128 % ID/g; Drug uptake [32]: 0.733 % ID/g; Drug uptake [33]: 1.647 % ID/g; Drug uptake [34]: 5.781 % ID/g; Drug uptake [35]: 0.244 % ID/g; Drug uptake [36]: 1.523 % ID/g; Drug uptake [37]: Active; Drug uptake [38]: 0.34 % ID/g; Drug uptake [39]: 7.345 % ID/g
Cn1cc(-c2ccncc2)c(-c2ccc(OCc3cc(O[11CH3])c4ccccc4n3)cc2)n1	0.121	0.192	8.941	3	0.187	0.242	9	0.371	0.112	0.343	0.224	75	Active	0.258	Active	Active	0.066	2.34	0.758	0.352	Stability [21]: 5%; Drug uptake [22]: Active; Stability [23]: 25%; Drug uptake [24]: 0.152 % ID/g; Drug uptake [25]: 0.233 % ID/g; Drug uptake [26]: 0.278 % ID/g; Drug uptake [27]: 7.08 % ID/g; Drug uptake [28]: 0.087 % ID/g; Stability [29]: 65%; Drug uptake [30]: 0.175 % ID/g; Drug uptake [31]: 0.114 % ID/g; Drug uptake [32]: 0.464 % ID/g; Drug uptake [33]: 1.294 % ID/g; Drug uptake [34]: 4.723 % ID/g; Drug uptake [35]: 0.133 % ID/g; Drug uptake [36]: 1.072 % ID/g; Drug uptake [37]: Active; Drug uptake [38]: 0.31 % ID/g; Drug uptake [39]: 10.085 % ID/g
